Data reported in PubChem BioAssay AID328 (DTP/NCI, 2004).
Several values for one entry are separate records, joined by “and”; a condition that tells them apart may be missing. Identical values can stand only once. Inconclusive results and toxic doses are left out.

Tested on: BDF1 mice, P388 leukemia ip, median survival T/C
Experiment: NCI In Vivo Anticancer Drug Screen. Data for tumor model P388 Leukemia (intraperitoneal) in B6D2F1 (BDF1) mice
Conditions: endpoint: median survival time, higher = longer survival
Procedure, shortened: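 In tumour-bearing mice, survival after compound treatment is set against the vehicle group and given as a quotient.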

[1] = dose: 100.0 mg/kg/injection, schedule: Q04DX003 (ip), vehicle: saline with Tween-80
[2] = dose: 200.0 mg/kg/injection, schedule: Q04DX003 (ip), vehicle: saline with Tween-80
[3] = dose: 400.0 mg/kg/injection, schedule: Q04DX003 (ip), vehicle: saline with Tween-80
[4] = dose: 100.0 mg/kg/injection, schedule: Q01DX009 (ip), vehicle: Klucel (hydroxypropylcellulose) (HPC)
[5] = dose: 200.0 mg/kg/injection, schedule: Q01DX009 (ip), vehicle: Klucel (hydroxypropylcellulose) (HPC)
[6] = dose: 50.0 mg/kg/injection, schedule: Q01DX009 (ip), vehicle: saline with Tween-80
[7] = dose: 100.0 mg/kg/injection, schedule: Q01DX009 (ip), vehicle: saline with Tween-80
[8] = dose: 6.25 mg/kg/injection, schedule: Q01DX009 (ip), vehicle: saline with Tween-80
[9] = dose: 200.0 mg/kg/injection, schedule: Q01DX009 (ip), vehicle: saline with Tween-80
[10] = dose: 100.0 mg/kg/injection, schedule: Q04DX003 (ip), vehicle: Klucel (hydroxypropylcellulose) (HPC)
[11] = dose: 50.0 mg/kg/injection, schedule: Q01DX009 (ip), vehicle: Klucel (hydroxypropylcellulose) (HPC)
[12] = dose: 50.0 mg/kg/injection, schedule: Q04DX003 (ip), vehicle: Klucel (hydroxypropylcellulose) (HPC)
[13] = dose: 200.0 mg/kg/injection, schedule: Q04DX003 (ip), vehicle: Klucel (hydroxypropylcellulose) (HPC)
[14] = dose: 25.0 mg/kg/injection, schedule: Q01DX009 (ip), vehicle: saline with Tween-80

CC(=O)c1c(-c2ccccc2)noc1C
T/C [1]: 98 % of control
T/C [2]: 90 % of control
T/C [3]: 100 % of control

O=C(c1ccccc1)C(Br)C(Br)C(=O)c1ccccc1 (centres undefined)
T/C [4]: 115 % of control
T/C [5]: 100 % of control
T/C (dose: 400.0 mg/kg/injection, schedule: Q01DX009 (ip), vehicle: Klucel (hydroxypropylcellulose) (HPC)): 95 % of control

CN1CCC2(CC1)c1ccccc1-c1ccccc12
T/C [6]: 109 % of control
T/C [7]: 100 % of control

N#CSCc1ccc(CSC#N)c(Cl)c1
T/C (dose: 1.56 mg/kg/injection, schedule: Q01DX009 (ip), vehicle: saline with Tween-80): 118 % of control
T/C [8]: 100 % of control

COC1/C=C\OC2(C)Oc3c(C)c(O)c4c(c3C2=O)C(=O)C=C(NC(=O)C(C)=C/C=C\C(C)C(O)C(C)C2OC(C)(C)OC(C1C)C2C)C4=O (centres undefined)
T/C [6]: 103 % of control
T/C [7]: 100 % of control
T/C [9]: 93 % of control

OC1(C2(O)c3ccccc3Oc3ccccc32)c2ccccc2Oc2ccccc21
T/C (dose: 50.0 mg/kg/injection, schedule: Q01DX001 (ip), vehicle: saline): 95 % of control
T/C (dose: 100.0 mg/kg/injection, schedule: Q01DX001 (ip), vehicle: saline): 90 % of control
T/C (dose: 200.0 mg/kg/injection, schedule: Q01DX001 (ip), vehicle: saline): 90 % of control

CCC1c2ccc3cc(OC)ccc3c2C(=O)CC1C(=O)O (centres undefined)
T/C (dose: 100.0 mg/kg/injection, schedule: Q04DX003 (sc), vehicle: steriod suspending solution): 113 % of control
T/C (dose: 200.0 mg/kg/injection, schedule: Q04DX003 (sc), vehicle: steriod suspending solution): 100 % of control
T/C (dose: 400.0 mg/kg/injection, schedule: Q04DX003 (sc), vehicle: steriod suspending solution): 95 % of control

N#Cc1cnc2n(c1=N)CCCCC2
T/C [10]: 94 % of control

CC(C#N)(Nc1ccccc1)c1ccccc1 (centres undefined)
T/C [1]: 95 % of control
T/C [2]: 100 % of control
T/C [3]: 100 % of control

O=NN(CCCl)C(=O)NCC1CCC(CNC(=O)N(CCCl)N=O)CC1 (centres undefined)
T/C (dose: 3.13 mg/kg/injection, schedule: Q01DX009 (ip), vehicle: other): 113 % of control
T/C (dose: 6.25 mg/kg/injection, schedule: Q01DX009 (ip), vehicle: other): 122 % of control
T/C (dose: 12.5 mg/kg/injection, schedule: Q01DX009 (ip), vehicle: other): 116 % of control
T/C (dose: 25.0 mg/kg/injection, schedule: Q01DX009 (ip), vehicle: Klucel (hydroxypropylcellulose) (HPC)): 154 % of control
T/C (dose: 26.4 mg/kg/injection, schedule: Q01DX009 (ip), vehicle: other): 154 % of control
T/C (dose: 40.0 mg/kg/injection, schedule: Q01DX009 (ip), vehicle: other): 159 % of control
T/C (dose: 44.0 mg/kg/injection, schedule: Q01DX009 (ip), vehicle: other): 227 % of control
T/C [11]: 115 % of control
T/C (dose: 66.0 mg/kg/injection, schedule: Q01DX009 (ip), vehicle: other): 240 % of control
T/C (dose: 66.0 mg/kg/injection, schedule: Q04DX003 (ip), vehicle: saline sonified): 170 % of control
T/C [4]: 169 % of control
T/C (dose: 100.0 mg/kg/injection, schedule: Q01DX009 (ip), vehicle: other): 272 % of control and 300 % of control
T/C (dose: 100.0 mg/kg/injection, schedule: Q04DX003 (ip), vehicle: saline sonified): 175 % of control and 185 % of control
T/C (dose: 150.0 mg/kg/injection, schedule: Q01DX009 (ip), vehicle: other): 245 % of control
T/C (dose: 150.0 mg/kg/injection, schedule: Q04DX003 (ip), vehicle: saline sonified): 180 % of control
T/C [5]: 176 % of control
T/C (dose: 200.0 mg/kg/injection, schedule: Q04DX003 (ip), vehicle: saline sonified): 240 % of control

CN(C)c1ccc(C=O)cc1[N+](=O)[O-]
T/C [12]: 113 % of control
T/C [10]: 113 % of control
T/C [13]: 104 % of control

COC(=O)/C(=C1/OC(=O)C(c2ccccc2)=C1O)c1ccccc1
T/C [8]: 100 % of control
T/C (dose: 11.0 mg/kg/injection, schedule: Q01DX009 (ip), vehicle: saline with Tween-80): 115 % of control
T/C (dose: 12.5 mg/kg/injection, schedule: Q01DX009 (ip), vehicle: saline with Tween-80): 90 % of control
T/C (dose: 16.5 mg/kg/injection, schedule: Q01DX009 (ip), vehicle: saline with Tween-80): 105 % of control
T/C [14]: 109 % of control and 112 % of control
T/C (dose: 37.5 mg/kg/injection, schedule: Q01DX009 (ip), vehicle: saline with Tween-80): 95 % of control
T/C [6]: 100 % of control

O=S(=O)(c1ccccc1)c1nn2nnnc2c2ccccc12
T/C [14]: 86 % of control
T/C [6]: 94 % of control
T/C [7]: 95 % of control

O=C1CSCC(=O)O1
T/C [11]: 105 % of control
T/C [12]: 95 % of control
T/C [10]: 95 % of control
T/C [13]: 109 % of control

O=c1[nH]c(C(F)(F)F)nc2c1nc1n2CCC1
T/C [1]: 104 % of control
T/C [2]: 100 % of control
T/C [3]: 100 % of control

CC(/C=N/NC(=[N-])N)=N\N=C(/[NH-])N.[Ni+2]
T/C (dose: 6.25 mg/kg/injection, schedule: Q01DX009 (ip), vehicle: Klucel (hydroxypropylcellulose) (HPC)): 97 % of control
T/C (dose: 12.5 mg/kg/injection, schedule: Q01DX009 (ip), vehicle: Klucel (hydroxypropylcellulose) (HPC)): 97 % of control

CCCCCCCCSC(=S)SCC(=O)O
T/C [6]: 100 % of control
T/C [7]: 100 % of control

O=C(O)c1cc(C(=O)O)cc([N+](=O)[O-])c1
T/C [14]: 100 % of control
T/C [6]: 100 % of control
T/C [7]: 90 % of control

CCOC(=O)CCCN(c1[nH]c(C)c(C)c1C#N)S(=O)(=O)c1ccc(C)cc1
T/C [14]: 109 % of control
T/C [6]: 100 % of control
T/C [7]: 113 % of control
T/C [9]: 104 % of control
T/C [2]: 87 % of control
T/C [3]: 95 % of control

CC(=O)CC(=O)c1ccccc1.CC(=O)CC(=O)c1ccccc1.CC(=O)CC(=O)c1ccccc1.[Co]
T/C (dose: 10.0 mg/kg/injection, schedule: Q01DX001 (ip), vehicle: Klucel (hydroxypropylcellulose) (HPC)): 90 % of control
T/C (dose: 10.0 mg/kg/injection, schedule: Q04DX003 (ip), vehicle: Klucel (hydroxypropylcellulose) (HPC)): 104 % of control
T/C (dose: 20.0 mg/kg/injection, schedule: Q01DX001 (ip), vehicle: Klucel (hydroxypropylcellulose) (HPC)): 104 % of control
T/C (dose: 20.0 mg/kg/injection, schedule: Q04DX003 (ip), vehicle: Klucel (hydroxypropylcellulose) (HPC)): 104 % of control
T/C (dose: 40.0 mg/kg/injection, schedule: Q01DX001 (ip), vehicle: Klucel (hydroxypropylcellulose) (HPC)): 104 % of control
T/C (dose: 40.0 mg/kg/injection, schedule: Q04DX003 (ip), vehicle: Klucel (hydroxypropylcellulose) (HPC)): 100 % of control

CCCCCn1c(Cl)c(/C=N\Nc2ccc([N+](=O)[O-])cc2[N+](=O)[O-])c2ccccc21
T/C (dose: 100.0 mg/kg/injection, schedule: Q04DX002 (ip), vehicle: Klucel (hydroxypropylcellulose) (HPC)): 88 % of control
T/C (dose: 200.0 mg/kg/injection, schedule: Q04DX002 (ip), vehicle: Klucel (hydroxypropylcellulose) (HPC)): 89 % of control
T/C (dose: 400.0 mg/kg/injection, schedule: Q04DX002 (ip), vehicle: Klucel (hydroxypropylcellulose) (HPC)): 90 % of control

O=C1CCS2(CCC(=O)O2)O1
T/C (dose: 50.0 mg/kg/injection, schedule: Q01DX009 (ip), vehicle: saline): 98 % of control
T/C (dose: 100.0 mg/kg/injection, schedule: Q01DX009 (ip), vehicle: saline): 94 % of control
T/C (dose: 200.0 mg/kg/injection, schedule: Q01DX009 (ip), vehicle: saline): 98 % of control

OCc1nccn1Cc1ccccc1
T/C (dose: 12.5 mg/kg/injection, schedule: Q01DX009 (ip), vehicle: water): 108 % of control
T/C (dose: 25.0 mg/kg/injection, schedule: Q01DX009 (ip), vehicle: water): 99 % of control
T/C (dose: 50.0 mg/kg/injection, schedule: Q01DX009 (ip), vehicle: water): 101 % of control
T/C (dose: 100.0 mg/kg/injection, schedule: Q01DX009 (ip), vehicle: water): 108 % of control
T/C (dose: 200.0 mg/kg/injection, schedule: Q01DX009 (ip), vehicle: water): 101 % of control
T/C (dose: 300.0 mg/kg/injection, schedule: Q01DX009 (ip), vehicle: water): 114 % of control

O=C(O)CS(=O)c1ccc2c3c(cccc13)C(=O)c1ccccc1-2 (centres undefined)
T/C (dose: 50.0 mg/kg/injection, schedule: Q01DX005 (ip), vehicle: saline with Tween-80): 87 % of control
T/C (dose: 100.0 mg/kg/injection, schedule: Q01DX005 (ip), vehicle: saline with Tween-80): 94 % of control
T/C (dose: 200.0 mg/kg/injection, schedule: Q01DX005 (ip), vehicle: saline with Tween-80): 94 % of control
